For experiment [1], the target named is T1, M334A mutant AhR (Mus musculus, UniProt P30561, M334A).
T1 construct: made in house; host or cells: in vitro, Promega TNT Quick rabbit reticulocyte lysate
T1 sequence (P30561 10-848 M334A): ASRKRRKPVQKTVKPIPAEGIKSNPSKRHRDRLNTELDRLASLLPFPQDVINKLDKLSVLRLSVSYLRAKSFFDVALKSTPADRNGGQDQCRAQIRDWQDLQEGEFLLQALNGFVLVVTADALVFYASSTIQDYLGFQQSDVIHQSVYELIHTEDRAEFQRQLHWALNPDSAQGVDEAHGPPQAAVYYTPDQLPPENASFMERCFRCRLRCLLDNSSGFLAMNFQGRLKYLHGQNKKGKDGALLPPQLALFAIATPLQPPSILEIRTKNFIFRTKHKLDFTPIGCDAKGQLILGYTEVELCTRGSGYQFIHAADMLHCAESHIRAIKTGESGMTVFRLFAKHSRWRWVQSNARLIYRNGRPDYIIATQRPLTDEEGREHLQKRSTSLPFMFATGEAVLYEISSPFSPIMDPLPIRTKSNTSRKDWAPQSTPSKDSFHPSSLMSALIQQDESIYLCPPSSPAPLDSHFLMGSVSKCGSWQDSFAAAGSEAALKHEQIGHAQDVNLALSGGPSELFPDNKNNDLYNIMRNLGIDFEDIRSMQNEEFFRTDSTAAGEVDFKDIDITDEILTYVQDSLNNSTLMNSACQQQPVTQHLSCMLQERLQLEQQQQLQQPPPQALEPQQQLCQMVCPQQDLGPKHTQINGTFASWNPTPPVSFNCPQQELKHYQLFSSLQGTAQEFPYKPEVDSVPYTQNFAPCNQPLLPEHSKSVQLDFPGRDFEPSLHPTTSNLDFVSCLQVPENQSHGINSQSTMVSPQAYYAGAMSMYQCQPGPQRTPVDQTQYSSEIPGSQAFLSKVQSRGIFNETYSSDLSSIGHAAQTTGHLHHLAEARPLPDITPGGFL
The arrangement: method as in PMID 21981577. Conditions: M334A mutation; cited from earlier work.

In experiment [2] the test system is zebrafish AhR1a (zfAhR1a). The following applies: cited from earlier work.
Experiment [3] deals with T2, H331A mutant AhR (Mus musculus, UniProt P30561, H331A).
T2 construct: made in house; host or cells: in vitro, Promega TNT Quick rabbit reticulocyte lysate
T2 sequence (P30561 10-848 H331A): T1 sequence (P30561 10-848 M334A) with H322A, A325M
Description: [3H]TCDD competitive ligand binding, H331A mutant AhR. The method, then: The mouse AhR (mAhR) and ARNT (mARNT) expression plasmids, mβAhR/pcDNA3 and mβArnt/pcDNA3, have been previously described. Point mutations of mβAhR/pcDNA3 were carried out using the QuikChange Lightning Mutagenesis Kit (Agilent Technologies) and all constructs were verified by sequencing.
[^3H]TCDD specific binding to wild-type or mutant mAhRs synthesized in vitro using the Promega TNT Quick coupled transcription/translation rabbit reticulocyte lysate kit (Madison, WI) was carried out as previously described. [^3H]TCDD specific binding was determined by subtracting the amount of [^3H]TCDD bound to unprogrammed lysate (nonspecific binding) from the total amount of [^3H]TCDD binding to lysate containing in vitro expressed AhR. The amount of [^3H]TCDD specific binding remaining in the presence of the indicated competitor chemical was expressed as a percent of the total [^3H]TCDD specific binding. The relative binding affinity (IC50) of each chemical was determined from concentration-dependent competitive inhibition curves obtained using [^3H]TCDD and increasing concentrations of each test chemical and the mean IC50 value was determined using three-parameter non-linear regression.

One may read the IC50 as the concentration at which inhibition is half-maximal.

SMILES strings stand for the structures. Numbering of substitutions follows the chain as printed.

`Clc1cc2c(cc1Cl)Oc1cc(Cl)c(Cl)cc1O2` [TCDD, 2,3,7,8-tetrachlorodibenzo-p-dioxin]: the TCDD binding activity result in experiment [1] is “only partially affected”. Further, the “ligand binding to zfAhR1a” value in experiment [2] was “unable to bind”.
With `Cc1ccc2cc3c(ccc4ccccc43)c3c2c1CC3` [3MC, 3-methylcholanthrene], the “change of relative binding affinity versus wild-type AhR” value in experiment [3] (H331A mutation, in words) is “dramatically increased”. For the same compound, the IC50 in experiment [3] (Table S6, AhR mutant H331A) amounted to 0.141 nM.

Source of the values: paper PMC6650409, “Modeling the binding of diverse ligands within the Ah receptor ligand binding domain” (Scientific Reports, 2019).
